These results are taken from publication PMC5344539, “Nematode neuropeptides as transgenic nematicides” (PLoS Pathogens, 2017).

Entries after “also recorded” stand apart in the source; their conditions may differ.

The test system of assay [1] is G. pallida J2s. In words: Chemosensory (chemotaxis) assay of uNLP pre-treated J2s towards tomato root exudate. Format: in vivo, Globodera pallida. The following applies: for CI score: Fig 2A, J2s incubated in 100 μM uNLP for 24 h, tomato cv. Moneymaker root exudate vs water agar plugs, counted after 3 h, mean of 10 replicates of 100 J2s, control 0.4154. On the procedure:
(§1) Predicted uNLPs from both M. incognita and G. pallida were synthesised by EZBiolab and dissolved into pH adjusted ddH2O to make a 5 mM stock which was aliquoted and stored at -20°C. J2s of both M. incognita and G. pallida were incubated for 24 hours in 200 μl of each peptide in a 24 well plate (SPL Lifesciences, South Korea) at a defined concentration.
(§2) A 60 mm Petri dish was divided into two segments, a positive and a negative side, with a 0.5 cm 'dead zone' either side of the centre point. The petri dish was filled with 15 ml of 0.25% w/v agar which was allowed to solidify. 3 ml of 0.25% w/v agar slurry in spring water (pH 7, agitated with a magnetic stirrer for several hours to give a smooth consistency) was added to the petri dish and spread evenly over the surface. Root diffusate (attractant) and water only (control) 0.25% agar plugs were embedded in the agar slurry, either side of the assay arena. Root diffusate was collected from 10 tomato plants, aged 3–6 weeks in 1 litre pots, by pouring 500 ml of ddH20 through the soil three times. Diffusate from each plant was combined, filter sterilised and stored at 4°C for a maximum of 1 month. Root diffusate agar plugs were made by melting 1.25% agar in ddH20, cooling to 50°C before mixing with 4 parts of root diffusate. The agar was then allowed to solidify at room temperature. 100 uNLP pre-treated M. incognita or G. pallida J2s were added by pipette to the centre of the plate. J2s which moved out of the 'dead zone' after 3 hours were counted and their location (+/-) scored. The distribution of J2s were used to create a chemotaxis index for each plate, which formed one replicate, a total of 10 replicates where completed for each uNLP treatment.

The test system of assay [2] is G. pallida J2s. As to the kind of experiment: Tomato invasion assay with uNLP pre-treated J2s. Format: in vivo, Globodera pallida. The following applies: Fig 2B; 500 J2s incubated in 100 μM uNLP for 24 h; single tomato seedling, 24 h at 18°C; normalised to negative control = 100%; mean. As to the method:
as §1
(§3) Tomato seeds were sterilised with 2.5% NaOCl for 15 minutes, washed 5 times in ddH20 and germinated on 0.5% Murashige and Skoog plates at 23°C. […] Invasion assays were performed by mixing 500 pre-treated M. incognita or G. pallida J2s with agar slurry and a single tomato seedling (2 days post germination) in a 6 well plate. Assays were left at 23°C for 24 hours in the case of M. incognita and at 18°C for 24 hours in the case of G. pallida under a 16 hour light and 8 hour darkness cycle. Seedlings were stained using acid fuschin [69] and the number of nematodes within the roots counted. At least five seedlings were used for M. incognita infections assays, with at least 15 seedlings used for G. pallida infections assays (due to increased variation).

Assay [3] has as its system M. incognita J2s. As to the kind of experiment: Chemosensory (chemotaxis) assay of uNLP pre-treated J2s towards tomato root exudate. The following applies: for CI score: Fig 1A, J2s incubated in 100 μM uNLP for 24 h, tomato cv. Moneymaker root exudate vs water agar plugs, counted after 3 h, mean of 10 replicates of 100 J2s, control 0.4426. Format: in vivo, Meloidogyne incognita. On the procedure:
as §1, §2

Another assay deals with mixed-stage C. elegans. As to the kind of experiment: C. elegans chemotaxis assay (non-target). It is filed as in vivo, Caenorhabditis elegans. The following applies: worms soaked in 100 μM uNLP 24 h, counted after 1 h, 8 replicates. As to the method: C. elegans wild-type N2 Bristol strain were obtained from the C. elegans Genomics Center and maintained on a Escherichia coli (strain OP50) lawn on nematode growth medium (NGM) agar plates (3 g/l NaCl, 17 g/l agar, 2.5 g/l peptone, 5 mg/l cholesterol, 25 mM KH2PO4 (pH 6.0), 1 mM CaCl2, 1 mM MgSO4) at 20°C [70]. Chemotaxis assays were performed in a 9 cm diameter Petri dish on NGM agar which was split into a positive and negative side with a central ‘dead zone’ of 1.5 cm diameter. 100 mixed-staged C. elegans were washed three times in M9 buffer and soaked in 100 μM PPN uNLP, or M9 vehicle control for 24 hours. 2 μl of 50 mM sodium acetate, 0.5% pyrazine, 0.5% benzaldehyde or 0.5% diacetyl was spotted onto the positive side, 2 μl of ddH20 was spotted onto the negative side. Pyrazine, benzaldehyde and diacetyl volatile attractants were assayed immediately whereas the water soluble sodium acetate was assayed 18 hours following addition to the plate. Assays were maintained in the dark at 20°C, and counted after 1 hour. Eight replicates were conducted for each C. elegans attraction assay.

In assay [4] the test system is M. incognita J2s. In words: Plant protection assay, C. reinhardtii secreting uNLPs. It is filed as in vivo, Meloidogyne incognita. The following applies: Fig 4A; peptide secreted by transgenic C. reinhardtii culture in tomato invasion arena with 500 J2s; relative to untransformed C. reinhardtii = 100%; mean. On the procedure:
as §3
(§4) B. subtilis were grown overnight in LB media containing ampicillin (100 μg/ml) at 37°C with shaking, and harvested in the log phase of growth determined by measuring OD600nm. Five ml of culture at 0.5 OD was spun down and the pellet mixed with 3 ml of agar slurry and 500 J2s from either G. pallida or M. incognita. C. reinhardtii clones were grown at 23°C with shaking, cultures in the log phase were measured at OD750 and 5 ml of culture at 0.5 OD was pelleted by centrifugation. C. reinhardtii pellets were mixed with 3 ml of agar slurry and 500 J2s from either G. pallida or M. incognita. Plant invasion assays were performed as described above. […]

The subject of assay [5] is S. carpocapsae infective juveniles (IJs). As to the kind of experiment: S. carpocapsae host-finding assay (non-target). It is filed as in vivo, Steinernema carpocapsae. The following applies: Fig 5E; chemotaxis towards insect host Galleria mellonella; 100 IJs incubated 24 h in 100 μM uNLP; n = 5; control 0.2315. As to the method:
S. carpocapsae were cultured in Galleria mellonella at 23°C. Infective juveniles (IJs) were collected using a White trap in PBS. Freshly emerged IJs were used for each assay. 100 IJs were incubated for 24 hours in 100 μM of selected uNLPs, and host-finding assays (n = 5) performed as in Morris et al..

The test system of assay [6] is M. incognita J2s. In words: Tomato invasion assay with uNLP pre-treated J2s. Format: in vivo, Meloidogyne incognita. As to the method: as §1, §3
Assay [7] deals with M. incognita J2s. As to the kind of experiment: Serotonin-induced stylet thrusting assay. It is filed as in vivo, Meloidogyne incognita. The following applies: Fig 1C; J2s incubated in 100 μM uNLP for 24 h; stylet thrusts in 5 mM serotonin, counted 1 min; normalised to control = 100%; mean, at least 30 J2s. On the procedure: as §1
(§5) Stylet thrusting assays where performed by incubating 100 M. incognita or G. pallida J2s for 15 minute in 5 mM or 2 mM serotonin (Sigma Aldrich, USA), respectively. J2s were placed on a glass slide and stylet thrusts were counted for randomly selected J2s, for 1 minute each. Counts for a given cohort of J2s were taken in a maximum interval of 15 minutes. Longer counting intervals, making for longer serotonin incubations, yielded inconsistent results. At least 30 J2s were counted for each neuropeptide treatment.

Assay [8] deals with M. incognita J2s. In words: Plant protection assay, B. subtilis secreting uNLPs. It is filed as in vivo, Meloidogyne incognita. The following applies: Fig 4B; peptide secreted by transgenic B. subtilis culture in tomato invasion arena with 500 J2s; control = 100%; mean. On the procedure: as §3, §4
Assay [9] concerns G. pallida J2s. In words: Serotonin-induced stylet thrusting assay. Format: in vivo, Globodera pallida. On the procedure: as §1, §5
[10] abbreviates: 100 μM uNLP, 24 h, relative to controls.
The mark [11] stands for this setting: Fig 5A, attractant sodium acetate (50 mM), control 0.4269.
[12] abbreviates: Fig 5B, attractant pyrazine (0.5%), control 0.4904.
Setting [13] is: Fig 5C, attractant benzaldehyde (0.5%), control 0.7026.
[14] abbreviates: Fig 5D, attractant diacetyl (0.5%), control 0.6638.

For “AGGRYFMRHFDDSPFAGWMA [Gp-NLP-21g, predicted unamidated NLP of G. pallida, synthesised]”, the CI score in the assay with G. pallida J2s [1] was -0.01357. The “% Invasion” value with G. pallida J2s [2] was determined as 214.80%.
For “GGARAFNFFAPDE [Gp-NLP-21b, predicted unamidated NLP of G. pallida, synthesised]”, the CI score in the assay with G. pallida J2s [1] is reported as -0.117. The “% Invasion” value in the assay with G. pallida J2s [2] is recorded as 6.90%.
“GGARAFNFFAPPDE [Gp-NLP-21a, predicted unamidated NLP of G. pallida, synthesised]”: in the assay on G. pallida J2s [2], the “% Invasion” value was determined as 178.90%.
For the substance “GGGRYFIRPFADQ [Mi-NLP-9f, predicted unamidated NLP of M. incognita, synthesised; also secreted from transgenic C. reinhardtii]”, the “effect on chemosensation (in words)” value in the assay with M. incognita J2s [3] (setting [10]) is given as “inhibit chemosensation; also recorded: inhibited”. The CI score in the assay on M. incognita J2s [3] is reported as -0.26; in the assay with mixed-stage C. elegans (setting [11]), 0.5261; in the assay with mixed-stage C. elegans (setting [12]), 0.4599; with mixed-stage C. elegans (setting [13]) it was 0.7463; with mixed-stage C. elegans (setting [14]) it was 0.6; in assay [5], 0.2462. Moreover, the “% Invasion” value is 10.32% in the assay on M. incognita J2s [4] and 28.22% in the assay on M. incognita J2s [6] (Fig 1B, 500 J2s incubated in 100 μM uNLP for 24 h, single tomato seedling, 24 h at 23°C, normalised to negative control = 100%, mean). Further, the “effect on host invasion (in words)” value with M. incognita J2s [6] (100 μM uNLP, 24 h, tomato cv. Moneymaker, relative to controls) was “inhibited”.
For “GGTRAFNFFVSDALPSSYE [Gp-NLP-21c, predicted unamidated NLP of G. pallida, synthesised]”, the “% Invasion” value in the assay on G. pallida J2s [2] is recorded as 14.07%.
“MVSWQPV [Mi-NLP-40, predicted unamidated NLP of M. incognita, synthesised; also secreted from transgenic B. subtilis]”: the CI score in the assay on M. incognita J2s [3] is reported as -0.04; in the assay on mixed-stage C. elegans (setting [11]), 0.482; with mixed-stage C. elegans (setting [12]), 0.5018; in the assay on mixed-stage C. elegans (setting [13]), 0.6686; with mixed-stage C. elegans (setting [14]) it was 0.5858; in [5], 0.3057. Also, in the assay on M. incognita J2s [7], the “% Thrusting” value is listed as 210%. Besides, the “% Invasion” value in the assay on M. incognita J2s [8] came out at 23.72%.
As to “SFDSFTGSGFTGLD [Gp-NLP-15c, predicted unamidated NLP of G. pallida, synthesised]”, the “effect on serotonergic-induced stylet thrusting (in words)” value in the assay on G. pallida J2s [9] (100 μM uNLP, 24 h, 2 mM serotonin, relative to controls) is on record as “modulating stylet thrusting rates”. Besides, the “% Thrusting” value in the assay with G. pallida J2s [9] (Fig 2C, J2s incubated in 100 μM uNLP for 24 h, stylet thrusts in 2 mM serotonin, counted 1 min, normalised to control = 100%, mean, at least 30 J2s) came to 56.07%. The “effect on chemosensation (in words)” value in the assay on G. pallida J2s [1] (setting [10]) is reported as “inhibit chemosensation”. For the same substance, the CI score in the assay with G. pallida J2s [1] is -0.227.
Turning to “SGIQTFRDDYDEKQAGEL [Gp-NLP-21d, predicted unamidated NLP of G. pallida, synthesised]”, the “% Invasion” value in the assay with G. pallida J2s [2] is on record as 2.01%.
